The source of these data is patent US7169931B2, “Cyclic compounds exhibiting thrombopoietin receptor agonism” (Shionogi & Co., Ltd., priority 2001, dated 2007).

In general, EC50 refers to the concentration at which the effect is half-maximal.

For this assay, the target named is T1, human TPO receptor (Homo sapiens, UniProt P40238).
T1 construct: expressed in transfected cells; host or cells: BaF-B03 (murine IL-3 dependent cell line)
T1 sequence (P40238 26-635): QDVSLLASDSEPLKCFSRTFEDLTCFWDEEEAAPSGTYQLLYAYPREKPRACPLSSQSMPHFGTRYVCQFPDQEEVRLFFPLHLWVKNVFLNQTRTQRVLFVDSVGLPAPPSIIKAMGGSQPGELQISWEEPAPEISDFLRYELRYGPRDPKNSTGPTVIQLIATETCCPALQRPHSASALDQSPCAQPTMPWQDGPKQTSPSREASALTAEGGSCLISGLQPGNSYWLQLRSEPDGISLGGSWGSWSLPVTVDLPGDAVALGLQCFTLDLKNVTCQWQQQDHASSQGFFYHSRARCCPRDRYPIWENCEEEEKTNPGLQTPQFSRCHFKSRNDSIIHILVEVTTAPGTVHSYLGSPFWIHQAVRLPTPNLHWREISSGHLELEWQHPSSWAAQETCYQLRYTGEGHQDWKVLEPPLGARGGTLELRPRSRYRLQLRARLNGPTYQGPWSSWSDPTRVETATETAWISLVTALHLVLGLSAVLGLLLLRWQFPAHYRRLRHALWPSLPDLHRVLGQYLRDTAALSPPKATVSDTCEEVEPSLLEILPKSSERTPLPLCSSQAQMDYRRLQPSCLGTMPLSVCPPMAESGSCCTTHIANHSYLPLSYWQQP
Put plainly: Thrombopoietic activity: proliferation of TPO dependent BaF/hTPOR cells (WST-1). The class given is cell-based. The following applies: BaF/hTPOR cell line (BaF-B03 with human TPO receptor), without IL-3; 20 hours incubation + 4 hours WST-1, absorbance 450 nm; ED50 = half concentration of the concentration showing maximum thrombopoietic activity. The procedure:
BAF/hTPOR cells were maintained in RPMI medium and WEHI-3B conditioned medium as a source of murine interleukin-3 (IL-3). These cells were washed and resuspended in RPMI medium without a source of murine IL-3 and seeded into each well of 96-well microtiter plates at a density of 5×10^4 cells per well in the absence or presence of various concentration of hTPO or the present compound. After incubation at 37° C. for 20 hours in the 5% CO2 incubator, 10% WST-1 reagent (Takara Biomedicals, Japan) was added to each wells and the cells were further incubated for 4 hours. The absorbance at 450 nm was measured.
(In general: Tetrazolium dyes change colour on reduction, which living cells bring about.)

For `COC(=O)c1cc2ccc(C(=O)Nc3nc(-c4cccc(C(F)(F)F)c4F)cs3)cc2oc1=O` [Compound D-8], the EC50 amounted to 1.93 µM.
The same measure for `COC(c1cccc(-c2csc(NC(=O)c3ccc4c(c3)CCC(C(=O)O)C4)n2)c1F)C1CCCCC1` (stereo not drawn) [Compound B-23]: 0.045 µM; for `CCOC(=O)C1=Cc2ccc(C(=O)Nc3nc(-c4cccc(C(F)(F)F)c4F)cs3)cc2C1` [Compound D-4]: 0.25 µM; for `O=C(Nc1nc(-c2cccc(F)c2F)cs1)c1ccc2c(c1)CCC(C(=O)O)C2` (stereo not drawn) [Compound B-9]: 0.0281 µM.
The same measure for `O=C(Nc1nc(-c2ccc(Cl)c(Cl)c2)cs1)c1ccc2cc(C(=O)O)sc2c1` [Compound C-2]: 0.071 µM; for `O=C(O)C1=Cc2ccc(C(=O)Nc3nc(-c4cccc(C(F)(F)F)c4F)cs3)cc2CC1` [Compound D-7]: 0.045 µM; for `O=C(O)c1ccc2cc(C(=O)Nc3nc(-c4cccc(C(F)(F)F)c4F)cs3)ccc2c1` [Compound D-2]: 0.019 µM.
For `CCCCCc1cc(-c2csc(NC(=O)c3ccc4c(c3)CCC(C(=O)O)C4)n2)ccc1F` (stereo not drawn) [Compound B-6], the concentration giving a half-maximal response (EC50) amounted to 0.066 µM.
In the case of `CCCc1c(Br)ccc(-c2csc(NC(=O)c3ccc4c(c3)CCC(C(=O)O)C4)n2)c1F` (stereo not drawn) [Compound B-29], the EC50 was 0.049 µM.
`O=C(Nc1nc(-c2ccc(Cl)c(Cl)c2)cs1)c1ccc2c(c1)CC(C(=O)O)CC2` (stereo not drawn) [Compound A-3]: the EC50 amounted to 0.965 µM.
For the compound `CCCCc1cccc(-c2csc(NC(=O)c3ccc4c(c3)CCC(C(=O)O)C4)n2)c1F` (stereo not drawn) [Compound B-21], the EC50 stood at 0.06 µM.
As for `CCOCCc1cccc(-c2csc(NC(=O)c3ccc4c(c3)CCC(C(=O)O)C4)n2)c1F` (stereo not drawn) [Compound B-30], the EC50 was 0.142 µM.
